Results from patent publication US20250144067A1, “PERSONALIZED STARVATION THERAPY FOR CANCER” (Faeth Therapeutics, Inc., priority 2021, published 2025).
Counter-ions that a name gives are not always drawn. Like-named read-outs stand apart in the source and are kept apart here.

Columns and labels:
[1] = test system: NCI-H292 lung cancer cells; assay: FDA drug screening, complete media vs cholesterol-free media with simvastatin (TABLE 2); assay type: cell-based, human
[2] = test system: NCI-H292 lung cancer cells; assay: FDA drug screening, complete media vs cholesterol-free media without statin (TABLE 1); assay type: cell-based, human
[3] = NCI-H292 cells, FDA drug library screen, cholesterol-free media with simvastatin 0.04 μM
[4] = NCI-H292 cells, FDA drug library screen, complete media
[5] = complete media vs cholesterol-free media + simvastatin (0.04 μM), >0 enhanced anti-cancer activity, about 0 neutral, <0 antagonist
[6] = Complete minus Cholesterol-free, greater than 0 enhanced anti-cancer activity, about 0 neutral, below 0 antagonist
[7] = NCI-H292 cells, FDA drug library screen, cholesterol-free media without statin
[8] = NCI-H292 cells, drug in cholesterol-free media with simvastatin 0.04 μM
[9] = NCI-H292 cells, drug in complete media
[10] = Complete minus Cholesterol-free, >0 enhanced anti-cancer activity, about 0 neutral, <0 antagonist
[11] = NCI-H292 cells, cholesterol-free media without statin
[12] = complete vs cholesterol-free media, greater than 0 enhanced anti-cancer activity, about 0 neutral, below 0 antagonists
[13] = NCI-H292 cells, FDA library drug in cholesterol-free media with simvastatin 0.04 μM
[14] = NCI-H292 cells, FDA library drug in complete media
[15] = Complete minus Cholesterol-free, greater than 0 enhanced anti-cancer activity, about 0 neutral, below 0 antagonists
[16] = NCI-H292 cells in complete media
[17] = complete media minus cholesterol-free media + simvastatin, >0 enhanced anti-cancer activity, about 0 neutral, <0 antagonist
[18] = NCI-H292 cells, cholesterol-free media without statin, FDA drug library screen
[19] = NCI-H292 cells, complete media, FDA drug library screen
[20] = NCI-H292 cells in cholesterol-free media without statin
[21] = NCI-H292 cells, cholesterol-free media with simvastatin 0.04 μM, FDA drug library screen (TABLE 2)
[22] = NCI-H292 cells, complete media, FDA drug library screen (TABLE 2)
[23] = complete media minus cholesterol-free media + simvastatin (0.04 μM), >0 enhanced anti-cancer activity, about 0 neutral, <0 antagonist
[24] = complete vs cholesterol-free media, >0 enhanced anti-cancer activity, about 0 neutral, <0 antagonist
[25] = Complete minus Cholesterol-free, […]
[26] = complete media minus cholesterol-free media + simvastatin, […]

Atazanavir (sulfate)
Cholesterol-free media + simvastatin (0.04 μM) [1, 3]: 1.26 | Complete Media [1, 4]: 1.128 | Difference [1, 5]: −0.13 | Difference [2, 6]: −0.18 | Cholesterol-free [2, 7]: 1.207 | Complete [2, 4]: 1.022

Cn1cnc([N+](=O)[O-])c1Sc1ncnc2nc[nH]c12 [Azathioprine]
Cholesterol-free media + simvastatin (0.04 μM) [1, 8]: 1.672 | Complete Media [1, 9]: 1.494 | Difference [1, 5]: −0.18 | Difference [2, 10]: −0.20 | Cholesterol-free [2, 11]: 0.5865 | Complete ([2]; NCI-H292 cells, complete media): 0.3893

Cl.Cl.[O-][S+]1c2ccccc2N=C(N2CCN(CCOCCO)CC2)c2ccccc21 (stereo not shown) [Quetiapine sulfoxide (dihydrochloride)]
Cholesterol-free media + simvastatin (0.04 μM) [1, 3]: 1.184 | Complete Media [1, 4]: 1.082 | Difference [1, 5]: −0.10 | Cholesterol-free [2, 11]: 1.151 | Complete ([2]; NCI-H292 cells, complete media): 0.7759 | Difference [2, 12]: −0.38

CONC(=O)Nc1ccc(-c2sc3c(c2CN(C)C)c(=O)n(-c2ccc(OC)nn2)c(=O)n3Cc2c(F)cccc2F)cc1 [Relugolix]
Cholesterol-free media + simvastatin (0.04 μM) [1, 13]: 1.344 | Complete Media [1, 14]: 1.077 | Difference [1, 5]: −0.27 | Difference [2, 15]: −0.64 | Complete [2, 16]: 0.978

N=C1CCCN1Cc1nc(O)nc(O)c1Cl [Tipiracil (hydrochloride)]
Cholesterol-free media + simvastatin (0.04 μM) [1, 3]: 0.8843 | Complete Media [1, 4]: 1.03 | Difference [1, 17]: 0.15 | Difference [2, 10]: 0.03 | Cholesterol-free [2, 18]: 0.8754 | Complete [2, 19]: 0.9052

Oc1ccc(OCc2ccccc2)cc1 [Monobenzone]
Cholesterol-free media + simvastatin (0.04 μM) [1, 3]: 1.226 | Complete Media [1, 4]: 1.137 | Difference [1, 5]: −0.09 | Difference [2, 15]: −0.87 | Cholesterol-free [2, 20]: 1.95 | Complete [2, 16]: 1.077

C[C@@H]1CCO[C@H]2Cn3cc(C(=O)NCc4ccc(F)cc4F)c(=O)c(O)c3C(=O)N12 [Dolutegravir]
Cholesterol-free media + simvastatin (0.04 μM) [1, 21]: 0.5964 | Complete Media [1, 22]: 0.5738 | Difference [1, 23]: −0.02 | Difference [2, 10]: −0.20 | Cholesterol-free [2, 11]: 0.9033 | Complete ([2]; NCI-H292 cells, complete media): 0.7062

Clc1ccc2c(c1)CCc1cccnc1C2=C1CCNCC1 [Desloratadine]
Cholesterol-free media + simvastatin (0.04 μM) [1]: 0.922 | Complete Media [1]: 0.6254 | Difference [1]: −0.30 | Cholesterol-free [2]: 1.114 | Complete [2]: 0.8419 | Difference [2]: −0.27

N=C(N)N [Guanidine (hydrochloride)]
Cholesterol-free media + simvastatin (0.04 μM) [1, 8]: 1.136 | Complete Media [1, 9]: 0.9286 | Difference [1, 5]: −0.21 | Cholesterol-free [2, 18]: 0.9919 | Complete [2, 19]: 1.237 | Difference [2, 24]: 0.24

N[C@@H](CCC(=O)O)C(=O)[O-].[Na+] [L-Glutamic acid monosodium salt]
Cholesterol-free media + simvastatin (0.04 μM) [1, 13]: 1.191 | Complete Media [1, 14]: 0.778 | Difference ([1]; complete media vs cholesterol-free media + simvastatin (0.04 μM), […]): −0.41 | Difference [2, 25]: −0.03 | Cholesterol-free [2, 18]: 1.093 | Complete [2, 19]: 1.059

C=CC(=O)Nc1cc(Nc2nccc(-c3cn(C)c4ccccc34)n2)c(OC)cc1N(C)CCN(C)C [Osimertinib]
Cholesterol-free media + simvastatin (0.04 μM) ([1]; NCI-H292 cells, cholesterol-free media with simvastatin 0.04 μM, cell growth value in FDA drug screen): 0.2666 | Complete Media ([1]; NCI-H292 cells, complete media, cell growth value in FDA drug screen): 0.3123 | Difference [1, 17]: 0.05 | Difference [2, 6]: −0.14 | Cholesterol-free [2, 7]: 0.477 | Complete [2, 4]: 0.3332

CCn1c(=O)c2c(nc(/C=C/c3ccc(OC)c(OC)c3)n2C)n(CC)c1=O [Istradefylline]
Cholesterol-free media + simvastatin (0.04 μM) [1, 8]: 1.183 | Complete Media [1, 9]: 0.9547 | Difference [1, 5]: −0.23 | Cholesterol-free [2, 18]: 0.9821 | Difference [2, 24]: 0.19

Cc1nnc(SCC2=C(C(=O)O)N3C(=O)[C@@H](NC(=O)Cn4cc(Cl)c(=O)c(Cl)c4)[C@H]3SC2)s1 [Cefazedone]
Cholesterol-free media + simvastatin (0.04 μM) [1, 3]: 1.153 | Complete Media [1, 4]: 1.591 | Difference [1, 26]: 0.44 | Difference [2, 25]: −0.67 | Cholesterol-free [2, 20]: 1.61 | Complete [2, 16]: 0.9409

CNC[C@H](O)[C@@H](O)[C@H](O)[C@H](O)CO.O=C(O)c1ccc2nc(-c3cc(Cl)cc(Cl)c3)oc2c1 [Tafamidis meglumine]
Cholesterol-free media + simvastatin (0.04 μM) [1, 3]: 0.9551 | Difference [1, 17]: 0.20 | Difference [2, 10]: −0.03 | Cholesterol-free [2, 18]: 0.8398 | Complete [2, 19]: 0.8088

COc1cccc2c1C(=O)c1c(O)c3c(c(O)c1C2=O)C[C@@](O)(C(C)=O)C[C@@H]3O[C@H]1C[C@H](N)[C@H](O)[C@H](C)O1 [Daunorubicin (Hydrochloride)]
Cholesterol-free media + simvastatin (0.04 μM) [1, 21]: 0.006543 | Complete Media [1, 22]: −0.007495 | Difference ([1]; complete media minus cholesterol-free media + simvastatin (0.04 μM), […]): −0.01 | Difference [2, 25]: −0.01 | Cholesterol-free [2, 18]: 0.01433 | Complete [2, 19]: 0.008412

OC[C@@H](O)[C@@H](O)[C@H](O)[C@@H](O)CO [D-Sorbitol]
Cholesterol-free media + simvastatin (0.04 μM) [1, 3]: 1.142 | Complete Media [1, 4]: 1.023 | Difference [1, 5]: −0.12 | Cholesterol-free [2, 18]: 1.006 | Complete [2, 19]: 1.32 | Difference [2, 24]: 0.31

c1ccc2c(CC3=NCCN3)cccc2c1 [Naphazoline (hydrochloride)]
Cholesterol-free media + simvastatin (0.04 μM) [1, 21]: 0.7495 | Complete Media [1, 22]: 0.6802 | Difference [1, 23]: −0.07 | Difference [2, 10]: −0.26 | Cholesterol-free [2, 11]: 1.189 | Complete ([2]; NCI-H292 cells, complete media): 0.9279

COc1ccc2c(c1)c(CC(=O)OCC(=O)O)c(C)n2C(=O)c1ccc(Cl)cc1 [Acemetacin]
Cholesterol-free media + simvastatin (0.04 μM) [1, 13]: 2.236 | Complete Media [1, 14]: 1.509 | Difference [1, 5]: −0.73 | Cholesterol-free [2, 18]: 1.099 | Complete [2, 19]: 1.479 | Difference [2, 24]: 0.38

CC/C=C\C/C=C\C/C=C\C/C=C\C/C=C\CCCC(=O)O [Eicosapentaenoic Acid]
Cholesterol-free media + simvastatin (0.04 μM) [1, 3]: 1.13 | Complete Media [1, 4]: 1.471 | Difference [1, 17]: 0.34 | Difference [2, 6]: −0.10 | Cholesterol-free [2, 7]: 1.072 | Complete [2, 4]: 0.969

CCN(CC)CCOC(=O)c1ccc(N)cc1Cl [Chloroprocaine (hydrochloride)]
Cholesterol-free media + simvastatin (0.04 μM) [1, 13]: 1.184 | Complete Media [1, 14]: 0.9029 | Difference [1, 5]: −0.28 | Difference [2, 10]: −0.28 | Cholesterol-free [2, 11]: 1.161 | Complete ([2]; NCI-H292 cells, complete media): 0.8831

CCCCCCCCCCCCCCCC(=O)O[C@@H]1[C@@H](O)[C@@H](O)[C@@H]([C@H](NC(=O)[C@@H]2C[C@@H](CCC)CN2C)[C@H](C)Cl)O[C@@H]1SC.Cl [Clindamycin palmitate (hydrochloride)]
Cholesterol-free media + simvastatin (0.04 μM) [1, 3]: 1.093 | Complete Media [1, 4]: 0.9482 | Difference [1, 5]: −0.14 | Cholesterol-free [2, 18]: 0.6777 | Complete [2, 19]: 1.478 | Difference [2, 24]: 0.80

CC(C)(C)CC(=O)OCC(=O)[C@@]1(O)CC[C@H]2[C@@H]3CCC4=CC(=O)C=C[C@]4(C)[C@H]3[C@@H](O)C[C@@]21C [Prednisolone Tebutate]
Cholesterol-free media + simvastatin (0.04 μM) [1, 21]: 0.7311 | Complete Media [1, 22]: 0.7398 | Difference [1, 23]: 0.01 | Cholesterol-free [2, 11]: 1.01 | Complete ([2]; NCI-H292 cells, complete media): 0.6634 | Difference [2, 12]: −0.35

Bulleyaconitine A
Difference [1, 26]: 0.03 | Difference [2, 25]: −0.17 | Cholesterol-free [2, 7]: 1.261 | Complete [2, 4]: 1.091

CCN(CC)Cc1cc(Nc2ccnc3cc(Cl)ccc23)ccc1O [Amodiaquine (dihydrochloride dihydrate)]
Cholesterol-free media + simvastatin (0.04 μM) [1, 3]: 1.209 | Complete Media [1, 4]: 1.606 | Difference [1, 17]: 0.40 | Cholesterol-free [2, 18]: 0.9158 | Complete [2, 19]: 1.353 | Difference [2, 24]: 0.44
